{"source": "patent US11812774B2", "about": "“Composition for browning inhibition and use of same” (SUNTORY HOLDINGS LIMITED, priority 2016, dated 2023)", "key": {"[1]": {"assay": "Accelerated aging of epicatechin/glyoxal model solution, change in visible absorption spectrum", "conditions": "baicalin 0.5 g/L added to epicatechin 0.5 g/L + glyoxal 0.01 g/L; condition 3 (oxygen aeration, 123° C., 30 minutes); compared to no baicalin", "description": "The preparation prepared above was subjected to an aging test under the following conditions, and then the visible absorption spectrum was measured. Condition 1: purged with nitrogen, stored at 4° C. for one hour Condition 2: stored at 121° C. for […] Condition 3: after oxygen aeration, stored at 123° C. for 30 minutes Baicalin (0.5 g/L) was added to a model solution obtained by mixing epicatechin (0.5 g/L) with glyoxal (0.01 g/L). The mixture was accelerated-aged under condition 3 (after oxygen aeration, stored at 123° C. for 30 minutes) in Test Example 2, and the amount of change in the visible absorption spectrum (ΔABU) before and after accelerated aging was calculated. FIG. 9 is a diagram showing changes in a visible absorption spectrum of the model solution by addition of baicalin."}, "[2]": {"assay": "LC-MS analysis of accelerated-aged mixture of baicalin and glyoxal", "conditions": "baicalin 0.5 g/L + glyoxal 0.01 g/L, condition 3 (oxygen aeration, 123° C., 30 min)", "description": "A mixture (green tea model) of epicatechin (EC) (0.5 g/L) and glyoxal (0.01 g/L) was accelerated-aged under condition 3 (after oxygen aeration, stored at 123° C. for 30 minutes) in Test Example 2, and analyzed by LC-MS under the following conditions. • LC-MS measurement conditions • LC • Column: 2.5 Cholester (Nacalai Tesque, Inc.) (100 mmL.×2.0 I.D.) • Mobile phase: • A: 0.1% formic acid/H2O • B: 0.1% formic acid/CH3CN • Gradient elution method • Time program (concentration of B solution is expressed in percent by volume): B 5% (0-0.5 min)→B 32% (20 min)→B 100% (25-27.5 min)→B 5% (27.51-30 min) • Flow rate: 0.25 mL/min • Column temperature: 40° C. • Sample injection volume: 2 μL • MS • Probe voltage: +4.5 kV (ESI positive mode) • −3.5 kV (ESI negative mode) • Nebulizer gas flow rate: 1.5 L/min • Drying gas flow rate: 20 L/min • DL temperature: 250° C. • DL voltage/Q-array voltage: default value • SCAN: m/z 100-800 (positive, negative) • SIM: A mixture of baicalin (0.5 g/L) and glyoxal (0.01 g/L) was accelerated-aged under condition 3 (after oxygen aeration, stored at 30 min at 123° C.) of Test Example 2, and analyzed by LC-MS. LC-MS measurement conditions are the same as those in Test Example 5. […]"}, "[3]": {"assay": "Accelerated aging of baicalin/epicatechin/glyoxal mixtures, visible absorption spectrum and residual catechin by LC-MS", "conditions": "15 minutes", "description": "The following three kinds of solutions were prepared. B+G: a mixture of baicalin (0.5 g/L) and glyoxal (0.01 g/L) B+C+G: a mixture of baicalin (0.5 g/L), epicatechin (0.5 g/L), and glyoxal (0.01 g/L) C+G: a mixture of epicatechin (0.5 g/L) and glyoxal (0.01 g/L)\nThese solutions were kept in an autoclave at 121° C. for 15 minutes for accelerated aging. After accelerated aging, changes in color were checked by visual observation, and further, the visible absorption spectrum was measured.\nFIG. 10(a) is a picture showing the appearance of the mixture of baicalin and glyoxal (B+G), the mixture of baicalin, epicatechin, and glyoxal (B+C+G), and the mixture of epicatechin and glyoxal (C+G) after accelerated aging; and FIG. 10(b) is a diagram showing visible absorption spectra of the same (FIG. 10(a): picture, (b): visible absorption spectra). In FIG. 10(b), the solid line indicates the mixture (B+G), the dashed line indicates the mixture (B+C+G), and the long dashed dotted line indicates the mixture (C+G).\nFurther, after accelerated aging, the amount of epicatechin (the amount of a residual catechin) in the mixture (B+C+G) and the mixture (C+G) was measured by LC-MS under the same conditions as in Test Example 3."}, "[4]": {"assay": "Aldehyde-scavenging substance screening (Br value and Xt value, 96-well microplate)", "conditions": "sample solution 600 ppm total phenol; epicatechin + glyoxal; 70° C., 16 hours; Br and Xt values relative to negative control; N=3", "description": "Aldehyde-scavenging ability of a candidate substance was evaluated based on how much the candidate substance added to a mixture of glyoxal (model aldehyde) and epicatechin (reaction substrate) can inhibit browning. The negative control was distilled water. As positive control, fractions 6, 7, and 8 (mixtures containing baicalin and baicalin glycosides (compounds containing one to three glucose molecules bonded to a sugar moiety of baicalin)) obtained in Preparation 1 were used.\nA glyoxal aqueous solution (39% (v/v)) and epicatechin were used as reagents. […]\nAccelerated aging was performed at 70° C. for 16 hours, and the area under the spectrum at 400 to 600 nm and the absorbance at 487 nm were measured.\nThe amount of change in the visible absorbance before and after accelerated aging was calculated. […] The Br value indicates the amount of change Δ in the area under the spectrum at 400 to 600 nm, and the Xt value indicates the amount of change Δ in the absorbance at 487 nm. […] In FIG. 14, the solid line indicates the absorbance when a substance having an aldehyde-scavenging effect (a substance having a browning-inhibiting effect) was added, and the dashed line indicates the absorbance of the negative control. […]"}, "[5]": {"description": "A sample solution was prepared by dissolving a candidate substance in water to adjust the total phenol amount derived from the candidate substance to 600 ppm. The total phenol amount was measured by the Folin-Denis method, using gallic acid as a standard substance."}}, "data": [{"smiles": "O=C(O)[C@H]1O[C@@H](Oc2cc3oc(-c4ccccc4)cc(=O)c3c(O)c2O)[C@H](O)[C@@H](O)[C@@H]1O", "note": "[baicalin]", "values": [{"measurement": "amount of change in the visible absorption spectrum (ΔABU) before and after accelerated aging", "setting": "[1]", "result": "significantly reduced"}, {"measurement": "production of compound having a xanthylium structure (brown) by reaction with glyoxal", "setting": "[2]", "result": "No compound having a xanthylium structure that exhibits brown was detected"}, {"measurement": "absorption at 487 nm after accelerated aging", "setting": "[3]; B+C+G (baicalin 0.5 g/L, epicatechin 0.5 g/L, glyoxal 0.01 g/L) vs C+G, autoclave 121° C.", "result": "significantly reduces"}, {"measurement": "amount of the residual catechin in a solution after accelerated aging", "setting": "[3]; B+C+G vs C+G, 121° C., epicatechin by LC-MS", "result": "increases"}]}, {"smiles": "COc1ccc(-c2oc3c(CC=C(C)C)c(O[C@@H]4O[C@H](CO)[C@@H](O)[C@H](O)[C@H]4O)cc(O)c3c(=O)c2O[C@@H]2O[C@@H](C)[C@H](O)[C@@H](O)[C@H]2O)cc1", "note": "[icariin]", "values": [{"measurement": "aldehyde-scavenging ability", "setting": "[4]", "result": "confirmed"}, {"measurement": "water solubility", "setting": "[5]", "result": "poor water solubility"}]}, {"smiles": "O=C(O)[C@H]1O[C@@H](Oc2cc3oc(-c4ccc(O)cc4)cc(=O)c3c(O)c2O)[C@H](O)[C@@H](O)[C@@H]1O", "note": "[scutellarin]", "values": [{"measurement": "aldehyde-scavenging ability", "setting": "[4]", "result": "confirmed"}]}]}
